Measured values as given in ChEMBL document CHEMBL5608180, “DNA G-quadruplexes in the genome of Trypanosoma cruzi as potential therapeutic targets for Chagas disease: Dithienylethene ligands as effective antiparasitic agents” (Eur J Med Chem, 2024).
Activity calls are given as the source filed them. The rule behind the calls is not given here.

How the values were obtained:
[1] = Selectivity index, ratio of IC50 for cytotoxicity against human MRC5 cells to IC50 for antiparasitic activity against epimastigote form of Trypanosoma cruzi BM Lopez (TcIa); type: toxicity, cell-based; conditions: read-out: Ratio IC50
Trypanosoma cruzi [2] = experiment: Antiparasitic activity against epimastigote form of Trypanosoma cruzi DA (TcI) assessed as inhibition of parasite growth incubated for 96 hrs followed by incubation with resazurin for 4 to 6 hrs by resazurin dye based fluorescence analysis; type: functional, organism-based
Trypanosoma cruzi [3] = experiment: Antiparasitic activity against epimastigote form of Trypanosoma cruzi BM Lopez (TcIa) assessed as inhibition of parasite growth incubated for 96 hrs followed by incubation with resazurin for 4 to 6 hrs by resazurin dye based fluorescence analysis; type: functional, organism-based
Trypanosoma cruzi [4] = experiment: Antiparasitic activity against epimastigote form of Trypanosoma cruzi SOL(TcV) assessed as inhibition of parasite growth incubated for 96 hrs followed by incubation in dark with resazurin for 4 to 6 hrs by resazurin dye based fluorescence analysis; type: functional, organism-based
[5] = Selectivity index, ratio of IC50 for cytotoxicity against human MRC5 cells to IC50 for antiparasitic activity against epimastigote form of Trypanosoma cruzi DA (TcI); type: toxicity, cell-based; conditions: read-out: Ratio IC50
[6] = Cytotoxicity against human MRC5 cells; type: toxicity, cell-based
Trypanosoma cruzi [7] = experiment: Antiparasitic activity against epimastigote form of Trypanosoma cruzi Y(TcII) assessed as inhibition of parasite growth incubated for 96 hrs followed by incubation with resazurin for 4 to 6 hrs by resazurin dye based fluorescence analysis; type: functional, organism-based
[8] = Selectivity index, ratio of IC50 for cytotoxicity against human MRC5 cells to IC50 for antiparasitic activity against epimastigote form of Trypanosoma cruzi Y (TcII); type: toxicity, cell-based; conditions: read-out: Ratio IC50
[9] = Selectivity index, ratio of IC50 for cytotoxicity against human MRC5 cells to IC50 for antiparasitic activity against epimastigote form of Trypanosoma cruzi SOL (TcV); type: toxicity, cell-based; conditions: read-out: Ratio IC50
Trypanosoma cruzi [10] = experiment: Antiparasitic activity against trypomastigote form of Trypanosoma cruzi SOL (MHOM/ES/2008/SOL; DTU V) assessed as inhibition of parasite growth incubated for 96 hrs followed by incubation in dark with resazurin for 4 to 6 hrs by resazurin dye based fluorescence analysis; type: functional, organism-based
[11] = Selectivity index, ratio of IC50 for cytotoxicity against human MRC5 cells to IC50 for antiparasitic activity against trypomastigote form of Trypanosoma cruzi SOL (TcV); type: toxicity, cell-based; conditions: read-out: Ratio IC50
Quadruplex DNA [12] = experiment: Binding affinity to Trypanosoma cruzi G-quadruplex RCr DNA (FAM-5'-GGGGACGGGAATGGGGGTGCATGAGGGG-3'-TAMRA) assessed as increase in melting temperature at DNA:compound concentration ratio of 1:2 by CD melting assay; type: nucleic-acid assay
Quadruplex DNA [13] = experiment: Stabilization of Trypanosoma cruzi G-quadruplex RCr DNA (FAM-5'-GGGGACGGGAATGGGGGTGCATGAGGGG-3'-TAMRA) at 10 uM by FRET melting analysis; type: nucleic-acid assay
Quadruplex DNA [14] = experiment: Binding affinity to Trypanosoma cruzi G-quadruplex RCr DNA (FAM-5'-GGGGACGGGAATGGGGGTGCATGAGGGG-3'-TAMRA) assessed as broadening of imino proton signals with delta shift at 1 equiv. by 1H-NMR analysis; type: nucleic-acid assay
Quadruplex DNA [15] = experiment: Stabilization of Trypanosoma cruzi G-quadruplex MCr DNA (FAM-5'-GTGGAGGGGGAGGGTCATGGGG-3'-TAMRA) assessed as change in apparent melting temperature at 5 uM by FRET melting analysis; type: nucleic-acid assay
Quadruplex DNA [16] = experiment: Binding affinity to Trypanosoma cruzi G-quadruplex MCr DNA (FAM-5'-GTGGAGGGGGAGGGTCATGGGG-3'-TAMRA) assessed as broadening of imino proton signals at 1 equiv. by 1H-NMR analysis; type: nucleic-acid assay
dsDNA [17] = experiment: Binding affinity to human duplex FdxT DNA (FAM-5'-TATAGCTAT-peg-TATAGCTATA-3'-TAMRA) at 5 uM by FRET melting analysis; type: nucleic-acid assay
Quadruplex DNA [18] = experiment: Stabilization of human proto-oncogene G-quadruplex MYC DNA (FAM-5'-TTGAGGGTGGGTAGGGTGGGTAA-3'-TAMRA) assessed as change in apparent melting temperature at 5 uM by FRET melting analysis; type: nucleic-acid assay
Quadruplex DNA [19] = experiment: Binding affinity to Trypanosoma cruzi G-quadruplex TCr DNA (FAM-5'-GGGAGGGACGGATGGGCAGAAACGGG-3'-TAMRA) assessed as broadening of imino proton signals at 1 equiv. by 1H-NMR analysis; type: nucleic-acid assay
Quadruplex DNA [20] = experiment: Stabilization of Trypanosoma cruzi G-quadruplex RCr DNA (FAM-5'-GGGGACGGGAATGGGGGTGCATGAGGGG-3'-TAMRA) assessed as change in apparent melting temperature at 5 uM by FRET melting analysis; type: nucleic-acid assay
Quadruplex DNA [21] = experiment: Stabilization of Trypanosoma cruzi G-quadruplex TCr DNA (FAM-5'-GGGAGGGACGGATGGGCAGAAACGGG-3'-TAMRA) assessed as change in apparent melting temperature at 5 uM by FRET melting analysis; type: nucleic-acid assay
Quadruplex DNA [22] = experiment: Stabilization of human telomere G-quadruplex F21T DNA (FAM-5'-GGGTTAGGGTTAGGGTTAGGG-3'-TAMRA) assessed as change in apparent melting temperature at 5 uM by FRET melting analysis; type: nucleic-acid assay
Quadruplex DNA [23] = experiment: Binding affinity to Trypanosoma cruzi G-quadruplex RCr DNA (FAM-5'-GGGGACGGGAATGGGGGTGCATGAGGGG-3'-TAMRA) assessed as decrease in absorption with shift to higher wavelength at 30 uM by UV-Vis spectrophotometric analysis; type: nucleic-acid assay
Quadruplex DNA [24] = experiment: Stabilization of Trypanosoma cruzi G-quadruplex RCr DNA (FAM-5'-GGGGACGGGAATGGGGGTGCATGAGGGG-3'-TAMRA) at 5 uM in presence of 1 to 10 uM double stranded ds26 DNA by FRET melting analysis; type: nucleic-acid assay
dsDNA [25] = experiment: Binding affinity to double stranded ds26 DNA (unknown origin) assessed as decrease in absorbance with shift to lower wavelength at 30 uM by UV-Vis spectrophotometric analysis; type: nucleic-acid assay
Quadruplex DNA [26] = experiment: Stabilization of human telomere G-quadruplex F21T DNA (FAM-5'-GGGTTAGGGTTAGGGTTAGGG-3'-TAMRA) at 5 uM in presence of 1 to 10 uM double stranded ds26 DNA by FRET melting analysis; type: nucleic-acid assay
Quadruplex DNA [27] = experiment: Binding affinity to Trypanosoma cruzi G-quadruplex MCr DNA (FAM-5'-GTGGAGGGGGAGGGTCATGGGG-3'-TAMRA) assessed as decrease in absorption with shift to higher wavelength at 30 uM by UV-Vis spectrophotometric analysis; type: nucleic-acid assay
Trypanosoma cruzi [28] = experiment: Potency index, ratio of Benznidazole IC50 to test compound IC50 for antiparasitic activity against trypomastigote form of Trypanosoma cruzi SOL (MHOM/ES/2008/SOL; DTU V) by resazurin dye based fluorescence analysis; type: functional
Quadruplex DNA [29] = experiment: Binding affinity to Trypanosoma cruzi G-quadruplex MCr DNA (FAM-5'-GTGGAGGGGGAGGGTCATGGGG-3'-TAMRA) at DNA:compound concentration ratio of 1:1 to 1:2 by CD melting assay; type: nucleic-acid assay

SMILES	IC50 (Trypanosoma cruzi [2]) [µM]	IC50 (Trypanosoma cruzi [3]) [µM]	IC50 (Trypanosoma cruzi [4]) [µM]	IC50 (Trypanosoma cruzi [7]) [µM]	selectivity ratio [1]	selectivity ratio [5]	IC50 [6] [µM]	selectivity ratio [8]	selectivity ratio [9]	further results
Cc1sc(-c2ccc(N3CCNCC3)cc2)cc1C1=C(c2cc(-c3ccc(N4CCNCC4)cc3)sc2C)CCC1	13.9	29.8	30.8	29.5	< 1	< 1	8	< 1	< 1	–
O=C(Cn1ccnc1[N+](=O)[O-])NCc1ccccc1 [BENZNIDAZOLE]	–	6.3	11.2	20.3	7.5	–	47.2	2.3	4.2	IC50 (Trypanosoma cruzi [10]): 57.1 µM; selectivity ratio [11]: < 1
C[C@]12SC(c3ccncc3)=CC1=C1CCCC1=C1C=C(c3ccncc3)S[C@@]12C	30.2	> 25.6	> 18.3	13.9	< 1	< 1	3.3	< 1	< 1	–
C[C@]12SC(c3ccc(CN4CCCC4)cc3)=CC1=C1CCCC1=C1C=C(c3ccc(CN4CCCC4)cc3)S[C@@]12C	40.1	> 50	> 50	> 34	< 1	< 1	22.5	< 1	< 1	–
C[C@]12SC(c3ccc(-c4ccncc4)cc3)=CC1=C1CCCC1=C1C=C(c3ccc(-c4ccncc4)cc3)S[C@@]12C	36.6	60.1	> 50	42.8	< 1	< 1	4.9	< 1	< 1	–
C[C@]12SC(c3ccc(N4CCNCC4)cc3)=CC1=C1CCCC1=C1C=C(c3ccc(N4CCNCC4)cc3)S[C@@]12C	32	> 50	> 50	> 50	< 1	< 1	4.3	< 1	< 1	–

Now from value to compound, other results behind:

IC50 (Trypanosoma cruzi [2]) [µM]	IC50 (Trypanosoma cruzi [3]) [µM]	IC50 (Trypanosoma cruzi [4]) [µM]	IC50 (Trypanosoma cruzi [7]) [µM]	SMILES	selectivity ratio [1]	selectivity ratio [5]	IC50 [6] [µM]	selectivity ratio [8]	selectivity ratio [9]	further results
28.4	25.2	37.1	14	Cc1sc(-c2ccc(-c3cc[n+](C)cc3)cc2)cc1C1=C(c2cc(-c3ccc(-c4cc[n+](C)cc4)cc3)sc2C)CCC1	< 1	< 1	2.2	< 1	< 1	–
47.5	49.4	> 100	> 100	CN(C)c1ccc(Nc2c3ccc(NC(=O)CCN4CCCC4)cc3nc3cc(NC(=O)CCN4CCCC4)ccc23)cc1	< 1	< 1	–	< 1	< 1	–
2.7	4	3.8	3.6	Cc1sc(-c2ccc(CCN(C)C)cc2)cc1C1=C(c2cc(-c3ccc(CCN(C)C)cc3)sc2C)CCC1	< 1	< 1	2.6	< 1	< 1	–
> 100	> 100	> 100	> 100	NCCOc1cc(C(=O)Nc2cc(OCCN)c3ccccc3n2)nc(C(=O)Nc2cc(OCCN)c3ccccc3n2)c1 [PYRIDOSTATIN]	< 1	< 1	–	< 1	< 1	–
13.4	> 48.4	45.1	31.1	CN(C)CCc1ccc(C2=CC3=C4CCCC4=C4C=C(c5ccc(CCN(C)C)cc5)S[C@]4(C)[C@@]3(C)S2)cc1	< 1	< 1	6.1	< 1	< 1	–
> 28.2	> 28.6	> 27.4	23.1	Cc1sc(-c2cc[n+](C)cc2)cc1C1=C(c2cc(-c3cc[n+](C)cc3)sc2C)CCC1	< 1	< 1	2.4	< 1	< 1	–
20.6	40.7	22.3	20.9	C[C@]12SC(c3ccc4cccnc4c3)=CC1=C1CCCC1=C1C=C(c3ccc4cccnc4c3)S[C@@]12C	2	4	82.5	3.9	3.7	ΔTm (Quadruplex DNA [12]): 3.81 °C; Activity (Quadruplex DNA [13]): Active; Activity (Quadruplex DNA [14]): Active; ΔTm (Quadruplex DNA [15]): 14 °C; Activity (Quadruplex DNA [16]): Active; Activity (dsDNA [17]): inactive; ΔTm (Quadruplex DNA [18]): 17 °C; Activity (Quadruplex DNA [19]): Active; ΔTm (Quadruplex DNA [20]): 17 °C; IC50 (Trypanosoma cruzi [10]): 3.3 µM; ΔTm (Quadruplex DNA [21]): 17 °C; ΔTm (Quadruplex DNA [22]): 17 °C; Activity (Quadruplex DNA [23]): Active; Activity (Quadruplex DNA [24]): Active; selectivity ratio [11]: 25; Activity (dsDNA [25]): inactive; Activity (Quadruplex DNA [26]): Active; Activity (Quadruplex DNA [27]): Active; Ratio IC50 (Trypanosoma cruzi [28]): 17; Activity (Quadruplex DNA [29]): Active
6.1	4.6	9.75	6.6	Cc1sc(-c2ccc(CN3CCCC3)cc2)cc1C1=C(c2cc(-c3ccc(CN4CCCC4)cc3)sc2C)CCC1	1.6	1.2	7.2	1.1	< 1	–
14.4	22.7	20.4	22.8	Cc1sc(-c2cccc3c2ccc[n+]3C)cc1C1=C(c2cc(-c3cccc4c3ccc[n+]4C)sc2C)CCC1	< 1	1.4	20.5	< 1	1	–
6.8	19.1	21.2	14.2	Cc1sc(-c2ccc(CC[N+](C)(C)C)cc2)cc1C1=C(c2cc(-c3ccc(CC[N+](C)(C)C)cc3)sc2C)CCC1	< 1	< 1	2.7	< 1	< 1	–
